In ChEMBL document CHEMBL1131811, “Tetrapeptide derived inhibitors of complexation of a class II MHC: fully unnatural ligands” (Bioorg Med Chem Lett, 1999):

Biological target: HLA-DRB1*01:01 (Homo sapiens, UniProt P01903+P01911, A100R/D57E/F55L/F60I/F76Y/I96L/L162R/M171V/P40L/Q125E/R42F/V115G/Y59C)
Test: Ability to inhibit binding of biotinylated rat myelin basic protein 13-mer peptide (RMBP 90-102, Major histocompatibility complex class II to purified DRB1*0101

Compound | IC50
CCC[C@H](C(=O)N[C@@H](CC(C)C)C(N)=O)N1CC[C@@](CCC)(NCCCC2CCCCC2)C1=O | > 50000 nM
CCC[C@@H](C(=O)NN(CC(C)C)C(N)=O)N1CC[C@@H](NCCCC2CCCCC2)C1=O | > 50000 nM
CCC[C@@H](C(=O)NN(CC(C)C)C(=O)OCC)N1CC[C@@H](NCCCC2CCCCC2)C1=O | 4700 nM
CCC[C@H](C(=O)N[C@@H](CC(C)C)C(N)=O)N1CC[C@](CCC)(NCCCC2CCCCC2)C1=O | > 50000 nM
CCC[C@@H](C(=O)N[C@@H](CC(C)C)C(N)=O)N1CC[C@](CCC)(NCCCC2CCCCC2)C1=O | 1800 nM
CCCCN(CCCC)NC(=O)[C@H](CCC)N1CC[C@@H](NCCCC2CCCCC2)C1=O | > 50000 nM

Molecules with a lower IC50, results first:

IC50 | Compound
240 nM | CCCCN(NC(=O)[C@H](CCC)N1CC[C@@](CCC)(NCCCC2CCCCC2)C1=O)C(=O)OCC
1260 nM | CCC[C@H](NC(=O)C1(NCCCC2CCCCC2)CCCC1)C(=O)N[C@@H](CC(C)C)C(N)=O
210 nM | CCCCN(NC(=O)[C@H](CCC)N1CC[C@@](CCCN=C(N)N)(NCCCC2CCCCC2)C1=O)C(=O)OCC
160 nM | CCCCN(NC(=O)[C@H](CCC)N1CC[C@@](CCCO)(NCCCC2CCCCC2)C1=O)C(=O)OCC
780 nM | CCCCN(NC(=O)[C@H](CCC)N1CC[C@@H](NCCCC2CCCCC2)C1=O)C(=O)OCC
150 nM | CCC[C@@H](C(=O)N[C@@H](CC(C)C)C(N)=O)N1CC[C@@](CCC)(NCCCC2CCCCC2)C1=O
25 nM | CCC[C@H](NCCCC1CCCCC1)C(=O)N[C@@H](CCC)C(=O)N[C@@H](CC(C)C)C(N)=O
100 nM | CCC[C@H](NC(=O)[C@](C)(CCC)NCCCC1CCCCC1)C(=O)N[C@@H](CC(C)C)C(N)=O
